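Tested at 5 concentrations; 48 h exposure; 96-well plates; endpoints linearly interpolated, else capped at highest concentration. Abbreviation: GI50, concentration required for 50% inhibition of growth. The concentration for full growth arrest is given as TGI.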

Test systems include A498 renal; KM12 colon; MALME-3M melanoma; M14 melanoma; SNB-75 CNS; SK-MEL-5 melanoma; IGROV1 ovarian; OVCAR-4 ovarian; COLO 205 colon; HL-60(TB) leukemia.
Holding throughout (assay): NCI anticancer screen, dose series, 48 h

As for `CC1(C)COCN1COC1CCCCC1`, the TGI in the test with A498 renal, with KM12 colon, in the test on MALME-3M melanoma, in the test on M14 melanoma, with SNB-75 CNS and in the test with SK-MEL-5 melanoma was above 100 µM each time. Besides, the TGI in the test on IGROV1 ovarian, in the test on OVCAR-4 ovarian and in the test on COLO 205 colon was above 100 µM in each case.
`Nc1ccccc1/C=C\c1ccccc1`: the TGI with KM12 colon, in the test with MALME-3M melanoma, in the test on M14 melanoma, with SNB-75 CNS, in the test with HL-60(TB) leukemia and in the test on SK-MEL-5 melanoma was above 100 µM throughout. This compound also returned a TGI with IGROV1 ovarian above 100 µM.
As for `CN(NC(=O)CC(=O)NN(C)C(=S)c1ccccc1)C(=S)c1ccccc1`, the GI50 in the test with KM12 colon was 65.1 µM; in the test with MALME-3M melanoma, above 69.5 µM; with M14 melanoma, above 73.7 µM; with SNB-75 CNS, above 54.6 µM; with HL-60(TB) leukemia, above 70.7 µM; in the test on SK-MEL-5 melanoma, 49.1 µM. Further, in the test with OVCAR-4 ovarian, the GI50 is above 71.2 µM. In addition, the TGI with KM12 colon, with MALME-3M melanoma, in the test with M14 melanoma, in the test on SNB-75 CNS, in the test with HL-60(TB) leukemia and in the test on SK-MEL-5 melanoma was above 100 µM in each case. The TGI in the test with IGROV1 ovarian, in the test with OVCAR-4 ovarian and in the test with COLO 205 colon was above 100 µM in each case.
On to `C[C@@H]1O[C@@H](O[C@@H]2[C@@H](O)[C@H](OCCc3ccc(O)c(O)c3)O[C@H](COC(=O)/C=C/c3ccc(O)c(O)c3)[C@H]2O)[C@H](O)[C@H](O)[C@H]1O`, for which the GI50 in the test with KM12 colon was above 100 µM; with M14 melanoma it was above 100 µM; in the test with SNB-75 CNS it was above 100 µM; with HL-60(TB) leukemia it was 54.4 µM; in the test with SK-MEL-5 melanoma, above 100 µM; with IGROV1 ovarian, above 100 µM. The GI50 in the test with OVCAR-4 ovarian and in the test on COLO 205 colon was above 100 µM throughout. The TGI with KM12 colon, in the test with M14 melanoma, with SNB-75 CNS, in the test on HL-60(TB) leukemia, in the test on SK-MEL-5 melanoma and in the test with IGROV1 ovarian was above 100 µM each time. In addition, the TGI with OVCAR-4 ovarian and with COLO 205 colon was above 100 µM each time.
`CCOc1cc2c(cnc3c4cc(OC)c(OC)cc4ccc23)cc1OC`: the TGI with A498 renal, in the test with KM12 colon, in the test on MALME-3M melanoma, with M14 melanoma, in the test on SNB-75 CNS and in the test with SK-MEL-5 melanoma was above 100 µM in each case. For the same compound, the TGI in the test with IGROV1 ovarian, in the test with OVCAR-4 ovarian and in the test with COLO 205 colon was above 100 µM each time.
As to `CC(=O)C1CC2(c3ccc(C)cc3)C(c3ccc(C)cc3)=C(c3ccc(C)cc3)C1(c1ccc(C)cc1)S2=O` (configuration not stated), the GI50 in the test with KM12 colon was above 100 µM; in the test on MALME-3M melanoma, above 100 µM; in the test on M14 melanoma, above 100 µM; in the test with SNB-75 CNS, above 100 µM; in the test on SK-MEL-5 melanoma it was above 100 µM; in the test with IGROV1 ovarian, 70.2 µM. Also, the GI50 is 79.9 µM in the test on OVCAR-4 ovarian and above 100 µM with COLO 205 colon. The TGI in the test with KM12 colon, in the test on MALME-3M melanoma, in the test with M14 melanoma, with SNB-75 CNS, in the test with SK-MEL-5 melanoma and with IGROV1 ovarian was above 100 µM in each case. For the same compound, the TGI in the test with OVCAR-4 ovarian and in the test with COLO 205 colon was above 100 µM each time.
For `C=C1C(=O)O[C@@H]2C1C[C@@H](O)/C(C)=C/C/C=C(\C)CCC[C@H](C)[C@H]2OC(C)=O` (some centres not stated), the GI50 is 54 µM with A498 renal; 20.8 µM in the test with KM12 colon; 19.4 µM in the test with M14 melanoma; 38.6 µM with SNB-75 CNS; 17.7 µM in the test on SK-MEL-5 melanoma; 8.84 µM in the test with IGROV1 ovarian. Also, the GI50 was 42.8 µM in the test on OVCAR-4 ovarian and 40.4 µM in the test on COLO 205 colon. The TGI is above 100 µM with A498 renal; 41.7 µM with KM12 colon; 44.1 µM in the test on M14 melanoma; above 100 µM in the test with SNB-75 CNS; 35.5 µM with SK-MEL-5 melanoma; 32.7 µM in the test with IGROV1 ovarian. The TGI in the test on OVCAR-4 ovarian and in the test on COLO 205 colon was above 100 µM each time.
In the case of `N#CC1=C(N)N=C(N2CCCCC2)C(C#N)C12Nc1ccccc1S2` (configuration not stated), the GI50 in the test with KM12 colon is 25.6 µM; in the test on MALME-3M melanoma it was 47.2 µM; in the test with M14 melanoma it was 19.1 µM; in the test with SNB-75 CNS it was 84.1 µM; with HL-60(TB) leukemia, 85.4 µM; in the test with SK-MEL-5 melanoma it was 19.6 µM. Moreover, the GI50 in the test on IGROV1 ovarian was 58.9 µM; in the test on OVCAR-4 ovarian, 37.9 µM; in the test with COLO 205 colon, 29.3 µM. Also, the TGI is above 100 µM in the test with KM12 colon; above 100 µM with MALME-3M melanoma; 46.8 µM with M14 melanoma; above 100 µM with SNB-75 CNS; above 100 µM in the test on HL-60(TB) leukemia; 42.3 µM with SK-MEL-5 melanoma. The TGI with IGROV1 ovarian was above 100 µM; with OVCAR-4 ovarian, above 100 µM; with COLO 205 colon, 82.6 µM.
For `Nc1nc(Nc2ccc3c(c2)CC[C@@H](N2CCCC2)CC3)nn1-c1cc2c(nn1)-c1ccccc1CCC2`, the GI50 in the test on A498 renal is 0.0249 µM; in the test with KM12 colon, 1.83 µM; in the test with M14 melanoma, 1.43 µM; in the test on SNB-75 CNS it was 1.22 µM; in the test on SK-MEL-5 melanoma it was 1.72 µM; in the test with OVCAR-4 ovarian, 1.44 µM. Moreover, the TGI was found to be 1.44 µM in the test with A498 renal; 3.71 µM in the test on KM12 colon; 3 µM with M14 melanoma; 2.48 µM in the test on SNB-75 CNS; 3.11 µM in the test with SK-MEL-5 melanoma; 3.31 µM in the test with OVCAR-4 ovarian.
Consider `COc1ccc(C2S/C(=C\c3cc(OC)c(OC)c(OC)c3)C(=O)N2NC(=O)Cc2ccccc2)cc1` (configuration not stated), for which the TGI with KM12 colon, in the test with MALME-3M melanoma, in the test with M14 melanoma, in the test with SNB-75 CNS, with HL-60(TB) leukemia and in the test on SK-MEL-5 melanoma was above 100 µM throughout. The TGI with IGROV1 ovarian, with OVCAR-4 ovarian and in the test on COLO 205 colon was above 100 µM each time.
Consider `Cc1ccccc1C(=O)C#Cc1cn(C2CC(O)C(CO)O2)c(=O)[nH]c1=O` (configuration not stated), for which the TGI was above 100 µM in the test on KM12 colon; 35.1 µM in the test on MALME-3M melanoma; above 100 µM with M14 melanoma; above 100 µM with SNB-75 CNS; above 100 µM in the test on HL-60(TB) leukemia; above 100 µM in the test with SK-MEL-5 melanoma. The TGI with IGROV1 ovarian, in the test with OVCAR-4 ovarian and in the test with COLO 205 colon was above 100 µM throughout.

The values above are taken from PubChem BioAssay (NCI).
